Reference: US10675266B2, “Compounds and methods for treating autism spectrum disorders” (BIOCODEX, priority 2008, dated 2020)

What was measured:
BALB/c mice = test: Social investigatory behaviour of BALB/c test mice towards a juvenile DBA/2J stimulus mouse; format: in vivo; details: for duration of social contacts: 100, 200 and 300 mg/kg i.p. once daily for 5 days
Description: (§1) The purpose of this study was to examine the effects of stiripentol on the social behavioural in BALB/c mice compared to C57BL/6J (C57) inbred mice. The social investigatory behaviour of mice was measured by the amount of time that the “test” mouse (BALB/c and C57 mice) engaged in social contact with the “stimulus” mouse (juvenile DBA/2J mice strain).
(§2) All male mice (BALB/c, C57 and DBA/2J) were purchased from the Charles River breeding (Les Oncins-France). BALB/c and C57 mice were 8 weeks of age upon arrival at the laboratory. They were housed in temperature-controlled rooms (22±2° C.), separately by strain, with 5 mice per polycarbonate cage (type “S” cage: 265 mm L×160 mm W×140 mm H) and provided with food (A04-SAFE, France) and tap water ad libitum. Behavioral testing was conducted during the light period of a 12-h light:12-h dark cycle (lights on at 7 a.m.). The mice were used for behavioural testing starting 5-7 days after arrival at the laboratory whereas juvenile DBA/2J mice were used at 3-weeks of age and arrived at the laboratory 5 days prior testing. The experiments were conducted in accordance with the European Recommendations (directive 86/609/ECC) for the care and use of laboratory animals.
(§3) The general procedure was conducted according to the protocol described by Fishkin and Winslow (1997) Psychopharmacology (Berl) 132:335-341 with slight modifications.
Twenty-four hours prior to testing, BALB/c and C57 mice were individually housed in clear cage (type “S” cage). Food and water remained freely available. Individual housing was provided firstly to permit resident male mice an opportunity to scent mark and habituate to their home cage and, secondly to heighten the motivation of “test” mice for social interaction. All the animals were allowed to acclimate to the test room (natural lighting) for at least 1 h prior to testing which was conducted between 9 a.m. and 3 p.m.
The juvenile DBA/2J mouse was placed into BALB/c or C57 mouse cage for a 10-min observation period. The DBA/2J mouse served as “stimulus” mouse for one BALB/c mouse and one C57BL mouse. For each contact, an observer, sitting about 1 m from the cage; recorded the latency to the first contact (or approach) (in sec) towards the “stimulus” mouse and the time (in sec) that the “test” mouse spent in social investigatory behaviour. Nosing, sniffing, pawing, grooming and close following of the “stimulus” mouse by the young adult mouse were considered to be signs of social investigation. […]
(§4) All data represent the mean±standard error of mean (S.E.M.). Treatment effects on mean latency to the first contact and on mean duration of social investigation were analyzed with two-way analysis of variance (ANOVA) with the strain and the treatment as factors. […]

C57 mice = test: Social investigatory behaviour of C57 test mice towards a juvenile DBA/2J stimulus mouse; format: in vivo
Description: as §1, §2, §3
Twenty-four hours prior to testing, BALB/c and C57 mice were individually housed in clear cage (type “S” cage). […]
The juvenile DBA/2J mouse was placed into BALB/c or C57 mouse cage for a 10-min observation period. […] For each contact, an observer, sitting about 1 m from the cage; recorded the latency to the first contact (or approach) (in sec) towards the “stimulus” mouse and the time (in sec) that the “test” mouse spent in social investigatory behaviour. […]
as §4

patients = test: Observation of autism symptoms in patients after initiation of treatment; format: in vivo, human
Description: This observation can be confirmed by studies in animal models that mimic characteristic features of autism such as the models described by Moy S S et al, Behav. Brain Res. 176:4, 2007 and McFarlane H G et al, Genes, Brain and Behavior, 1601:1, 2007.

[1] = test system: recombinant GABA-A receptors; details: cited from earlier work
SMEI patients = details: cited from earlier work
animal models = details: several animal models; cited from earlier work
[2] = doses 100, 200 and 300 mg/kg i.p.; from literature (Gasior 1999; Vincent 1991); cited from earlier work

For `CC(C)(C)C(O)/C=C/c1ccc2c(c1)OCO2` (racemic) [Stiripentol, 1-penten-3-ol, 1-(1,3-benzodioxol)-4,4-dimethyl], the “latency to the first contact” value (BALB/c mice; 100, 200, 300 mg/kg i.p. once daily for 5 days, last dose 60 min before testing, FIG. 1) was “trend for decrease”, the “duration of social contacts” value (BALB/c mice; FIG. 2) was “increased duration of social contacts” and the “duration of social contacts” value (BALB/c mice; FIG. 2, listed as stiripentol) was “significantly increased”. The sociability (BALB/c mice; sub-chronic treatment 100, 200 or 300 mg/kg i.p. x 5 days) was “enhanced the sociability”, the sedative effects (C57 mice; 300 mg/kg i.p. once daily for 5 days) was “sedative effects in C57 mice began to appear” and the “duration of social contacts” value (C57 mice; 300 mg/kg i.p. once daily for 5 days, FIG. 2) was “significantly lowered”. The “latency to the first contact” value (C57 mice; up to 300 mg/kg i.p. once daily for 5 days, FIG. 1) was “without effects”, the autism symptoms (patients) was “resolution of autism symptoms” and the “modulation of the GABA receptor” value ([1]; Fisher, Neuropharmacology 2009) was “positive allosteric modulator”. For the same compound, the “potentiation by subunit subtype” value ([1]; alpha subunit subtypes compared) was “alpha 3 subtype showed the greatest potentiation”, the response rate (SMEI patients; SMEI patients, 50 mg/kg/day) was “high response rate” and the “efficacy in double blind controlled clinical trials” value (SMEI patients; two double blind controlled clinical trials (Chiron, Lancet 2000)) was “high efficacy”. The anticonvulsant activity (animal models) was “has shown anticonvulsant activity” and the adverse motor effects [2] was “devoid of any adverse motor effects”.
